From paper PMC9182405, “Rapid Screening of Lipase Inhibitors in Scutellaria baicalensis by Using Porcine Pancreatic Lipase Immobilized on Magnetic Core–Shell Metal–Organic Frameworks” (Molecules, 2022)

Tests used:
[1] = molecular target: T1, porcine pancreatic lipase (PPL) (Sus scrofa, UniProt P00591); assay: p-nitrophenol ester hydrolysis assay, absorbance at […] nm, free PPL; also ligand fishing with immobilized PPL; format: biochemical
T1 construct: gene PNLIP

[2] = molecular target: T1, porcine pancreatic lipase (PPL); assay: p-nitrophenol ester hydrolysis assay, absorbance at […] nm, free PPL; in ligand fishing some nonspecific adsorption to blank MMOF; format: biochemical

T1 sequence (P00591 whole entry): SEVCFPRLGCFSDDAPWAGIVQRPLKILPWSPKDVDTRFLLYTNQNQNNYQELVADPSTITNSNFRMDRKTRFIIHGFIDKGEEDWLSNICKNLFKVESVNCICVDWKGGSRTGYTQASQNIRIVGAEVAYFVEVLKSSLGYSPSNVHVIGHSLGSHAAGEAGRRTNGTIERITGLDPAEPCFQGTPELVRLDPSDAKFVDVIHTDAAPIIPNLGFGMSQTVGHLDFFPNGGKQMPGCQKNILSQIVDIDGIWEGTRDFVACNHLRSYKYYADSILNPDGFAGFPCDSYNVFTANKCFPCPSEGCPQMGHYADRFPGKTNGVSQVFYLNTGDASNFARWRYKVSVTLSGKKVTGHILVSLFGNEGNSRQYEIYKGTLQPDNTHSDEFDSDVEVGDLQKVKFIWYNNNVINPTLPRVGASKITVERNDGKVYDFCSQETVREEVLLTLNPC

Row | SMILES | IC50 [1] [µM] | IC50 [2] [µM]
1 | O=C(O)[C@H]1O[C@@H](Oc2cc3oc(-c4ccccc4)cc(=O)c3c(O)c2O)[C@H](O)[C@@H](O)[C@@H]1O [compound 3, Baicalin] | 242 ± 5.6 | –
2 | COc1c(O)cc(O)c2c(=O)cc(-c3ccccc3)oc12 [compound 7, Wogonin] | – | 168 ± 8.4
3 | COc1c(O)cc2oc(-c3ccccc3)cc(=O)c2c1O [compound 8, Oroxylin A] | 82.7 ± 3.6 | –
